Data published in patent publication US6127136A, “Detection of dioxin-like compounds by detection of transformed Ah receptor/ARNT complex” (Paracelsian, Inc., priority 1996, dated 2000).
Values joined by “and” are separate entries in the source; they are usually repeats but may differ in a detail not shown here. Equal entries are not always repeated.

Assays:
[1] = biological target: T1, transformed Ah receptor (Cavia porcellus, UniProt Q6J287); assay: mini-Ah immunoassay (DRE affinity gel, dot-blot spot density), with or without added recombinant ARNT; type: biochemical, guinea pig (male Hartley, hepatic cytosol)
T1 construct: TCDD-transformed receptor captured as heterodimer on DRE-oligonucleotide gel; recombinant ARNT added in some protocols
Description: Male Hartley guinea pigs weighing 300-350 g were obtained from Cornell Research Animal Resources, Cornell University, Ithaca, N.Y. Guinea pigs were anaesthetized and killed with carbon dioxide. Livers were perfused in situ with 100 mL ice-cold perfusion buffer, excised, trimmed of connective tissue, poorly perfused liver and gall bladder and weighed. The liver was minced and five mL of ice-cold HEDG per gram liver were added and the whole homogenized in a 50 mL homogenizer with teflon pestle using at 200 rpm for a total of seven strokes. Crude homogenate was centrifuged at 12,500 RPM in 50 mL tubes in a JA17 rotor in a Beckman J2-MI preparative centifuge at 4 degrees C for 20 minutes.
Procedure for the mini-Ah Immuno Assay
Preparation of Buffers: 155 uM TCDD stock was prepared by dissolving 1 mg 2,3,7,8-tetrachloro-dibenzo-p-dioxin (Cambridge Isotope Labs) in 20 mL DMSO (dimethylsulfoxide) overnight. 10 uM working dilution of TCDD was prepared by diluting 0.129 mL of the stock with 1.871 mL DMSO. 4M NaCl/HEDG was prepared by adding 116.88 g sodium chloride to 300 mL HEDG and adjusting the volume to 500 mL with HEDG. 0.3 M NaCl/HEDG was prepared by diluting 1.5 mL 4 M NaCl/HEDG to 20 mL with HEDG 0.6 M NaCl/HEDG was prepared by diluting 3.0 mL 4 M NaCl/HEDG to 20 mL with HEDG TBST was prepared by dissolving 1.18 g Tris-base, 6.35 g Tris-HCl, 8.76 g NaCL, and 2 mL Tween 20 in 800 mL water, adjusting volume to 1000 mL. Blocker was prepared by dissolving 10 g non-fat dry milk (Carnation) in 200 mL TBST. AP development buffer was prepared by dissolving 11 g Tris-base, 1.6 g Tris-HCl, 5.84 g Sodium Chloride, 10.2 g Magnesium Chloride hexahydrate, in 800 mL water and adjusting the volume to 1000 mL. BCIP stock was prepared by dissolving 100 mg BCIP (5-Bromo-4-Chloro-3-Indolyl Phosphate) in 2 mL N,N-Dimethylformamide, aliquoting into 66 uL portions, and freezing at -20 C until use. NBT stock was prepared by dissolving 250 mg NBT (Nitro Blue Tetrazolium) in 25 mL water, aliquoting into 660 uL proportions, and storing at -20 C until use. BCIP/NBT developer was prepared immediately before use by mixing one 66 uL aliquot of BCIP and one 660 uL aliquot of NBT in 20 mL AP development buffer.
For a typical mini-Ah immunoassay utilizing 12 samples, 5 mL of Transformed Ah Receptor Affinity Gel slurry described above was pipeted into a 50 mL conical tube. The slurry was washed with 40 mL HEDG and centifuged at 1000 g for 5 min, the supernatant withdrawn and discarded, the pellet washed with 40 mL HEDG, and centrifuged again. After the second centrifugation all but 5 mL of supernatant was withdrawn and the gel thus resuspended in the original volume. 10 mL guinea pig hepatic cytosol was thawed. The thawed cytosol was pooled and then divided into two 5 mL groups and treated with either 5 uL DMSO or 5 uL 10 uM TCDD in DMSO.
Assembly of transformation mixture:In the preferred embodiment of the mini-Ah immunoassay, each sample was composed of one 1.5 mL microfuge tube with the following sequential additions: 90 uL 4 M NaCl/HEDG, 400 uL Transformed Ah Receptor Affinity Gel slurry and 800 uL cytosol (treated with DMSO or TCDD as described above). The three components described above are the minimum components added at that step of the mini-Ah immunoassay. Any additional materials, such as ARNT, anti-ARNT and anti-Rabbit/alkaline phosphatase conjugate, were sometimes also added at this time as described in the specific examples. After assembly of the samples, the tubes were capped and the samples incubated at room temperature for 2 hours with gentle rocking to allow transformation of the Ah receptor to take place, interaction of transformed Ah receptor and ARNT, and binding of the transformed Ah receptor as a heteromer to the DRE oligonucleotide contained on the Transformed Ah Receptor Affinity Gel.
Isolation transformed Ah receptor: After the 2 hour incubation the mixtures were pipetted into the empty column barrels and allowed to drain. […]

[2] = tested on: transformed DRE/AhR/ARNT complex; assay: size exclusion column of DRE/AhR/ARNT complex followed by SDS-PAGE western blot; type: biochemical, guinea pig (hepatic cytosol)
Description: Size-exclusion column: 10 mL bed volume sephacryl S-100-HR (Sigma, St. Louis, Mo.) packed in Econopac column (Biorad cat. no. 732-1010), equilibrated in HEDG plus 200 mM NaCl. Column was hooked up to a peristaltic pump. Flow rate was 0.5 mL/min. The size exclusion column outlet was attached to a HPLC fluorimeter set at excitation 494 nm and emmission 520 nm to detect fluorescein. DRE used was F-ERD oligo (SEQ. ID. #4) and DRE-D oligo (SEQ. ID. #1) hybridized as described above. Cytosol was prepared as described above. Cytosol was dosed with 1:1000 v/v DMSO (-) or 1:1000 v/v 10 uM 2,3,7,8-tetrachlorodibenzo-p-dioxin in DMSO (+).
Samples were incubated for 2 hours at room temperature as described above to achieve transformation/binding events then put on ice. The entire A sample was loaded onto the Size Exclusion Column and chromatography developed at a flow rate of 0.5 ml/min. Eluant fractions were collected at 2 min intervals (1 mL/fraction). The protocol was repeated for samples B,C,D.
The fluorimeter readings went offscale and usable readings for the fluorescent DRE were not possible. 200 uL subaliquots of fractions 3-10 were submitted to Sodium Dodecyl Sulfate--PolyAcrylamide Gel Electrophoresis (SDS-PAGE) followed by western blotting. Blots of fractions from samples A and B were probed with anti-ARNT (1:200) and anti-rabbit/alkaline phosphatase (1: 1000) and developed with BCIP/NBT. […]

T1 sequence (Q6J287 10-846): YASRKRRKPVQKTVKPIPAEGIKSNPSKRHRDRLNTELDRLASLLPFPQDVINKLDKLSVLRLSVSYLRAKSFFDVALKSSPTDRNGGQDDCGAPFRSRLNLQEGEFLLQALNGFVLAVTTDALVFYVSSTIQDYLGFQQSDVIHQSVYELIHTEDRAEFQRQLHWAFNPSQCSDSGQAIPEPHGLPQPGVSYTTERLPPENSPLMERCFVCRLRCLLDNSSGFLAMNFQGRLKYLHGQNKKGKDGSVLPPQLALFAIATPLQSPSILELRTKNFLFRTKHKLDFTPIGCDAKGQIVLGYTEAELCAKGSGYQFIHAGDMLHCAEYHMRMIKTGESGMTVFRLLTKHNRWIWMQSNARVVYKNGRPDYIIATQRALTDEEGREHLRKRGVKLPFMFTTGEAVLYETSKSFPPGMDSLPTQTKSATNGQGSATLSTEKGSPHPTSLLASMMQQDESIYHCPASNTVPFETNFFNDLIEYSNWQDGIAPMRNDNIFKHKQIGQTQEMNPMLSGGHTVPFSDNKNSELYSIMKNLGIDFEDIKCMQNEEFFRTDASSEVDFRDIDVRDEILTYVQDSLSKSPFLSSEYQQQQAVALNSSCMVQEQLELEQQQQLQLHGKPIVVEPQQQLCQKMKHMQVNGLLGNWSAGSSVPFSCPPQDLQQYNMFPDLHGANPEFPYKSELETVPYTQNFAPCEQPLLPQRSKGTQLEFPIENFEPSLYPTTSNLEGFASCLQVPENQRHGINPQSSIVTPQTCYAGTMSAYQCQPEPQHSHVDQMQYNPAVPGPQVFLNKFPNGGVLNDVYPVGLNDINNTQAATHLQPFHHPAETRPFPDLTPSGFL
T1 sequence (Q0WXX3 1-790 partner): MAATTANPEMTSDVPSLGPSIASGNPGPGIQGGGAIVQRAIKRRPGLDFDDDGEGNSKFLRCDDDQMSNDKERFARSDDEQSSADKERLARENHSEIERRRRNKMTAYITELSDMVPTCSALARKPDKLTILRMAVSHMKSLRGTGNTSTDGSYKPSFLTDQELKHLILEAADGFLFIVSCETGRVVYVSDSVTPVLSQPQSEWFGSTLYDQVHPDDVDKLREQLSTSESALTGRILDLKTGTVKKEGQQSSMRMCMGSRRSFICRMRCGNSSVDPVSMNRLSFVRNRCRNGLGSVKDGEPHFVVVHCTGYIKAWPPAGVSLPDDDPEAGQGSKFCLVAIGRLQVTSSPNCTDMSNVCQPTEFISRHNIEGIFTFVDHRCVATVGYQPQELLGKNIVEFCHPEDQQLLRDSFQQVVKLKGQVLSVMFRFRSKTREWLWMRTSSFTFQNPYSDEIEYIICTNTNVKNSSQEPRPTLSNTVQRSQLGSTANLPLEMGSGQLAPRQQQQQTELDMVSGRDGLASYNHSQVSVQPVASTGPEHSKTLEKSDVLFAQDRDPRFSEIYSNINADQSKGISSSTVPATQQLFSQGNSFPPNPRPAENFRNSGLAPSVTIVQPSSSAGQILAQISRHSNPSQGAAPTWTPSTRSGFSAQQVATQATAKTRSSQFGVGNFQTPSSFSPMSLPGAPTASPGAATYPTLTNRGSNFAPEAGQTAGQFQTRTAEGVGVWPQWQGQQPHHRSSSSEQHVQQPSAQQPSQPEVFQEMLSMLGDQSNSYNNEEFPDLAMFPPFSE

Clc1cc2c(cc1Cl)Oc1cc(Cl)c(Cl)cc1O2 [TCDD, 2,3,7,8-tetrachlorodibenzo-p-dioxin]
spot density, difference TCDD treated (+) minus DMSO treated (-) ([1]; Example 1, arnt spike 2 ug): 224497 | spot density, average ([1]; Example 1, arnt spike 2 ug, TCDD (+), average of two replicates): 303679 | spot density ([1]; Example 1, arnt spike 2 ug, TCDD (+), single replicate): 308831 and 298526 | spot density, difference TCDD treated (+) minus DMSO treated (-) ([1]; Example 1, normal protocol, no ARNT added): 49541 | spot density, average ([1]; Example 1, normal protocol, no ARNT added, TCDD (+), average of two replicates): 149868 | spot density ([1]; Example 1, normal protocol, no ARNT added, TCDD (+), single replicate): 157620 and 142115 | spot density, difference TCDD treated (+) minus DMSO treated (-) ([1]; Example 2, 0.5 ug arnt): 129849 | spot density, average ([1]; Example 2, 0.5 ug arnt, TCDD (+), average of two replicates): 174210 | spot density ([1]; Example 2, 0.5 ug arnt, TCDD (+), single replicate): 184049 and 164371 | spot density, difference TCDD treated (+) minus DMSO treated (-) ([1]; Example 2, 2.0 ug arnt): 209747 | spot density, average ([1]; Example 2, 2.0 ug arnt, TCDD (+), average of two replicates): 270107 | spot density ([1]; Example 2, 2.0 ug arnt, TCDD (+), single replicate): 281912 and 258302 | density, difference TCDD treated (+) minus DMSO treated (-) ([1]; Example 3, normal, anti-Ah receptor probe): 77724 | density, average ([1]; Example 3, normal, anti-Ah receptor probe, TCDD (+), average of two replicates): 169988 | density ([1]; Example 3, normal, probed with anti-Ah receptor/alkaline phosphatase, TCDD (+), single replicate): 177175 and 162801 | ARNT band in size exclusion fraction 3 ([2]; sample B (TCDD) vs sample A (DMSO), anti-ARNT blot): showed a band at the size of ARNT (circa 97 kD) that was absent in fraction 3 of sample A | rabbit IgG light chain (anti-ARNT) band in size exclusion fraction 5 ([2]; sample D (TCDD) vs sample C (DMSO), anti-rabbit blot): showed a band at the size of rabbit IgG light chain (circa 25 kD) that was absent in fraction 5 of sample C
